# Experimental data reported in EP0397914A1 (priority 1989, dated 1990).
# Where “and” joins values, the source holds several entries; their conditions need not be identical. Equal entries are not always repeated.
# Columns and labels:
# [1] = Acute toxicity (LD50) in mice; settings: mouse, in vivo, ip; intraperitoneal injection, male ICR mice (6 weeks old), after one week; read-out: LD₅₀
# Description: Epigallocatechin gallate was orally administered to male ICR mice (6 weeks old). LD₅₀ of them after one week was 2314 mg/kg. In another case, epigallocatechin gallate was administered to male ICR mice (6 weeks old) by intraperitoneal injection. LD₅₀ of them after one week was 150 mg/kg.
# [2] = biological target: M toxin of A type toxins produced by Clostridium botulinum (Clostridium botulinum, UniProt P0DPI0); settings: in vivo, iv
# [3] = biological target: S toxin of A type toxins produced by Clostridium botulinum (Clostridium botulinum, UniProt P0DPI0); settings: in vivo, iv
Compound,LD50 at 168 h [1] [mg/kg],Remaining toxic activity (%) [2],Remaining toxic activity (%) [3]
"O=C(O[C@@H]1Cc2c(O)cc(O)cc2O[C@@H]1c1cc(O)c(O)c(O)c1)c1cc(O)c(O)c(O)c1 [epigallocatechin gallate, (-) epigallocatechin gallate]",150,,
O=c1c(O)cc([C@H]2Oc3cc(O)cc(O)c3C[C@H]2O)cc2c([C@H]3Oc4cc(O)cc(O)c4C[C@H]3O)cc(O)c(O)c12 [free theaflavin],,9.9% and 7.6%,4.4% and 6.1%
